Here are results for two compounds from US20130338090A1, “Novel Compound Isolated from Allium tuberosum and Use Thereof as Antiviral Agent” (priority 2011, published 2013).

Molecules are shown by their SMILES. Some results are limits rather than exact numbers.

The test system of this assay is avian influenza virus (H5N1), A/Vietnam/1194/04(H5N1)-NIBRG-14 vaccine strain. The assay is classed as cell-based.

Take `C[C@@H]1O[C@@H](OC[C@H]2O[C@@H](Oc3c(-c4ccc(O)cc4)oc4cc(O)cc(O)c4c3=O)[C@H](O)[C@@H](O)[C@@H]2O)[C@H](O)[C@H](O)[C@H]1O` [Compound I, kaempferol 3-O-α-L-rhamnopyranosyl (1→6)-β-D-glucopyranoside]: the Activity result is given as “◯ (key: ◯: antiviral activity defined as a decrease of 4 log units; X: antiviral activity defined as a decrease of 4 log units)”, the log100TCID50/ml is given as 5 and the “viral titer lower than that of the control group” value is reported as 4 log.

For the compound `O=C(O)[C@H]1O[C@@H](Oc2cc(O)c3c(=O)cc(-c4ccc(O)cc4)oc3c2)[C@H](O)[C@@H](O)[C@@H]1O` [Compound II, apigenin 7-O-β-D-glucuronopyranoside], the Activity result is listed as “X (key: ◯: antiviral activity defined as a decrease of 4 log units; X: antiviral activity defined as a decrease of 4 log units)”, the CPE inhibitory concentration was >10 µg/mL and the log100TCID50/ml is on record as 0.
